{"source": "patent US8257949B2", "about": "“Self-priming polysialyltransferase” (National Research Council of Canada, priority 2006, dated 2012)", "format_in_all_cases": "biochemical", "key": {"[1]": {"biological_target": "T1, N. meningitidis polysialyltransferase PST-13 (MalE-PST fusion) (Neisseria meningitidis, UniProt Q51281)", "test": "Acceptor inhibition in kinetic assays", "conditions": "GD3-FCHASE at concentrations over 2 mM", "description": "(§1) Measurement of sialyltransferase activity—Basic assays were performed at 37° C. in 10-40 μL volumes containing 50 mM NaHEPES pH 7.5, 10 mM MgCl2, 0.1-50 mM CMP-NeuAc, 0.01-5 mM labelled acceptor and various amounts of enzyme. Buffer optimization assays were done with the following buffers: 20 mM citrate-phosphate pH 6.0-8.0, 50 mM Na2PO4 pH 6.5-7.5, 50 mM NaHEPES pH 6.5-8.0, 50 mM TrisHCl pH 7.5-9.0. Metal optimization assays were performed with 10 mM CaCl2, CoCl2, MgCl2, MnCl2, NiCl2, or ZnSO4. For the magnesium titration, endogenous Mg^2+ was removed by addition of EDTA and then dialyzed against 20 mM TrisHCl pH 7.5. Reactions were stopped man equal volume of 50% acetonitrile, 1% sodium dodecylsulphate, 10 mM EDTA. Analysis of actions was done by capillary electrophoresis as previously described. See, e.g., Wakarchuk, W. W. and Cunningham, A. M., Methods Mol. Biol., 213:263-274 (2003)).\nSome degradation of the starting material was observed and was more significant at high acceptor concentrations (5 mM)."}, "[2]": {"biological_target": "E. coli polysialyltransferase PST-05 (MalE-PST fusion) (Escherichia coli, UniProt Q57269)", "test": "Sialyltransferase activity by capillary electrophoresis, apparent Km estimation", "conditions": "CE based assay, 37° C., 50 mM NaHEPES pH 7.5, 10 mM MgCl2, estimated, read-out: apparent Km for GD3-FCHASE", "description": "(§2) For production of PST proteins, Cells grown in the presence of IPTG were lysed with an Avestin C5 Emulsiflex cell disrupter (Avestin Ottawa, Ontario) and centrifuged at 1000×g to pellet unbroken cells. MalE-PST fusions were purified using amylose resin as described by the manufacturer (New England Biolabs, Mississauga ON).\nas §1\n(§3) Acceptor synthesis—The GM3/GD3/GT3-FCHASE acceptors were synthesized from Lac-FCHASE on a milligram scale. […]"}, "[3]": {"biological_target": "T1, N. meningitidis polysialyltransferase PST-13 (MalE-PST fusion)", "test": "Sialyltransferase activity by capillary electrophoresis, apparent Km estimation", "conditions": "CE based assay, 37° C., 50 mM NaHEPES pH 7.5, 10 mM MgCl2, estimated, read-out: apparent Km for GD3-FCHASE", "description": "as §2, §1, §3"}}, "data": [{"substance": "NeuAc-α2,8-NeuAc-α2,3-Gal-β1,4-Glc-β-FCHASE [GD3-FCHASE]", "values": [{"measurement": "acceptor inhibition (productivity of the enzyme)", "setting": "[1]", "result": "decreased significantly"}, {"measurement": "Km", "setting": "[2]", "result": 145, "unit": "µM"}, {"measurement": "Km", "setting": "[3]", "result": 120, "unit": "µM"}]}]}
